Assay results as given in ChEMBL document CHEMBL5579794, “Improved synthesis and evaluation of preclinical pharmacodynamic parameters of a new monocyclic β-lactam DPI-2016” (Bioorg Med Chem Lett, 2024).

What was measured:
Huh-7 = assay: Cytotoxicity against human Huh-7 cells at 300 ug/ml relative to control; assay type: toxicity, cell-based; conditions: at 300 µg/mL
Cytochrome P450 1A2 = molecular target: T1, Cytochrome P450 1A2 (Homo sapiens, UniProt P05177); assay: Inhibition of CYP1A2 (unknown origin) at upto 100 uM; assay type: ADME
T1 sequence (P05177 whole entry): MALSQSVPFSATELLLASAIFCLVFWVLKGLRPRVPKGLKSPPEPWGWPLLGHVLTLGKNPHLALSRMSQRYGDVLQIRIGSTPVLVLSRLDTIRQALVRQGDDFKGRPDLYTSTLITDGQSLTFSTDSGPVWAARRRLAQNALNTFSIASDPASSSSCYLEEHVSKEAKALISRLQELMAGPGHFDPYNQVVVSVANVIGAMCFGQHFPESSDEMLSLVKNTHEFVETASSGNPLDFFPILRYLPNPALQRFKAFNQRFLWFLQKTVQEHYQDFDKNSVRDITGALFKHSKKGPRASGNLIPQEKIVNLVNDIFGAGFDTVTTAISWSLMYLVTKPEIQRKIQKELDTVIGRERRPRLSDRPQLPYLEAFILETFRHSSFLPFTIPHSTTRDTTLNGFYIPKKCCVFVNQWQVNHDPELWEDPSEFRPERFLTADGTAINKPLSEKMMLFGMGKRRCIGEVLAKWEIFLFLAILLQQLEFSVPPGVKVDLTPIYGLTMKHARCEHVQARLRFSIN

Cytochrome P450 2B6 = molecular target: T2, Cytochrome P450 2B6 (Homo sapiens, UniProt P20813); assay: Inhibition of CYP2B6 (unknown origin) at upto 100 uM; assay type: ADME
T2 sequence (P20813 whole entry): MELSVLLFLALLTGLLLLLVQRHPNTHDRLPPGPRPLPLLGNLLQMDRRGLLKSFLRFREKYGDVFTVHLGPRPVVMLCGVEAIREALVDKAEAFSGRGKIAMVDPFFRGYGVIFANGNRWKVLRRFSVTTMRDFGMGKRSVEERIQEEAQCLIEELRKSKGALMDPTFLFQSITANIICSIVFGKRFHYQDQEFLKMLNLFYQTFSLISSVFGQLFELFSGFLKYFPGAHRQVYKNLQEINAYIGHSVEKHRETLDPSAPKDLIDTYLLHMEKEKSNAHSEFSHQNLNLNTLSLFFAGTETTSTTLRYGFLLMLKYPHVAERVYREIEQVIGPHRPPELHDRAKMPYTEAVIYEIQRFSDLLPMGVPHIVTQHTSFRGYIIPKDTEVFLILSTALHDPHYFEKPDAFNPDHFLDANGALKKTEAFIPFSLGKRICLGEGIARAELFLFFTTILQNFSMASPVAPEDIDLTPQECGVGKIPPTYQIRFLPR

Cytochrome P450 2C9 = Cytochrome P450 2C9 (Homo sapiens, UniProt P11712); assay: Inhibition of CYP2C9 (unknown origin) at upto 100 uM; assay type: ADME
Cytochrome P450 2C9, sequence (P11712 whole entry): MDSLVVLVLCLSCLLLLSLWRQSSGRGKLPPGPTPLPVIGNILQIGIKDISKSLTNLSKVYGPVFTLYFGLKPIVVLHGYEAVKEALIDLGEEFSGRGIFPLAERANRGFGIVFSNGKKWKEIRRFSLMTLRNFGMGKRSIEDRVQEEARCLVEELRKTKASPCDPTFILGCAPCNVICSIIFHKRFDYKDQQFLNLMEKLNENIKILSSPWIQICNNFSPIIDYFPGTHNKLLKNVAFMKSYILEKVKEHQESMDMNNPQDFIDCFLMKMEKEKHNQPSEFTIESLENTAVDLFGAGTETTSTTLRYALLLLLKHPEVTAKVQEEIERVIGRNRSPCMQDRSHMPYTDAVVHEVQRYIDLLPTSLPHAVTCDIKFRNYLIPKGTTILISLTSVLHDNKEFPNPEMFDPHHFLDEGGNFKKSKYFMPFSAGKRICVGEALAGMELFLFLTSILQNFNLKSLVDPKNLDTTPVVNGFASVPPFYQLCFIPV

[1] = Stability in rat plasma at 1 uM measured upto 120 mins by LC-MS/MS analysis; assay type: ADME, cell-free; conditions: 2 h
[2] = AUC in male Sprague-Dawley rat at 2 mg/kg by LC-MS/MS analysis; assay type: ADME, organism-based; conditions: in vivo
[3] = Stability in mouse liver microsomes at 1 uM measured up to 60 mins in presence of NADPH by LC-MS/MS analysis; assay type: ADME, Microsome; conditions: 1 h
Cytochrome P450 2C8 = molecular target: T3, Cytochrome P450 2C8 (Homo sapiens, UniProt P10632); assay: Inhibition of CYP2C8 (unknown origin) at upto 100 uM; assay type: ADME
T3 sequence (P10632 whole entry): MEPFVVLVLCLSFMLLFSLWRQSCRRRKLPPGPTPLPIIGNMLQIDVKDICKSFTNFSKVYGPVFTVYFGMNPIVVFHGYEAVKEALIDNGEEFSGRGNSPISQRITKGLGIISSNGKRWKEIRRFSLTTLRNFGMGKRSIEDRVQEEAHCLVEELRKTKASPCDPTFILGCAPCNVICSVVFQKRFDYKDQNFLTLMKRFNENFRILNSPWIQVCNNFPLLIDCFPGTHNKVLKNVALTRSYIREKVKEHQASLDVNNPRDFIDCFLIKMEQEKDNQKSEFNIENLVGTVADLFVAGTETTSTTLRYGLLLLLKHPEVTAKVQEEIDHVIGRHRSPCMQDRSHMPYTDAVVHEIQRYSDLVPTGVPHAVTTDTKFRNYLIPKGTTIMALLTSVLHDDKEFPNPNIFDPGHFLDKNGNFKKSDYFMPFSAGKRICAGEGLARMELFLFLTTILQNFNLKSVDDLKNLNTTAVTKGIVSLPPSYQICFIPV

[4] = Stability in monkey liver microsomes at 1 uM measured up to 60 mins in presence of NADPH by LC-MS/MS analysis; assay type: ADME, Macaca mulatta, Microsome; conditions: rhesus monkey, 1 h
[5] = Stability in rat liver microsomes at 1 uM measured up to 60 mins in presence of NADPH by LC-MS/MS analysis; assay type: ADME, Microsome; conditions: 1 h
[6] = Stability in monkey plasma at 1 uM measured upto 120 mins by LC-MS/MS analysis; assay type: ADME, cell-free, Macaca mulatta; conditions: rhesus monkey, 2 h
[7] = Stability in mouse plasma at 1 uM measured upto 120 mins by LC-MS/MS analysis; assay type: ADME, cell-free; conditions: 2 h
Cytochrome P450 2C19 = Cytochrome P450 2C19 (Homo sapiens, UniProt P33261); assay: Inhibition of CYP2C19 (unknown origin) at upto 100 uM; assay type: ADME
Cytochrome P450 2C19, sequence (P33261 whole entry): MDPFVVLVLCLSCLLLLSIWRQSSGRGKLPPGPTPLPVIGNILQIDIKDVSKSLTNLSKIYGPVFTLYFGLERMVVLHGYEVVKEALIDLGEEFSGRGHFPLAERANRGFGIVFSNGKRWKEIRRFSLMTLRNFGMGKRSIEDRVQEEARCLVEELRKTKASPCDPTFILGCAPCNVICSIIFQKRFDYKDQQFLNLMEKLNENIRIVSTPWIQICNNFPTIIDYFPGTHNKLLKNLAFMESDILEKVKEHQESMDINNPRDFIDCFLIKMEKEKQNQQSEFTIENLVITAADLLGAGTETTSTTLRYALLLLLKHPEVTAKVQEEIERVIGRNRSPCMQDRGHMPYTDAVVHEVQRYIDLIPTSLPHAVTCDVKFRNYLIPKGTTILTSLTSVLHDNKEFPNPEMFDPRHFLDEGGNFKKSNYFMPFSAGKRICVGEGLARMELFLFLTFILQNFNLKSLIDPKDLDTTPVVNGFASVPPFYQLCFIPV

[8] = Stability in dog microsomes at 1 uM measured up to 60 mins in presence of NADPH by LC-MS/MS analysis; assay type: ADME, Canis lupus familiaris, Liver, Microsome; conditions: 1 h
Cytochrome P450 2D6 = Cytochrome P450 2D6 (Homo sapiens, UniProt P10635); assay: Inhibition of CYP2D6 (unknown origin) at upto 100 uM; assay type: ADME
Cytochrome P450 2D6, sequence (P10635 whole entry): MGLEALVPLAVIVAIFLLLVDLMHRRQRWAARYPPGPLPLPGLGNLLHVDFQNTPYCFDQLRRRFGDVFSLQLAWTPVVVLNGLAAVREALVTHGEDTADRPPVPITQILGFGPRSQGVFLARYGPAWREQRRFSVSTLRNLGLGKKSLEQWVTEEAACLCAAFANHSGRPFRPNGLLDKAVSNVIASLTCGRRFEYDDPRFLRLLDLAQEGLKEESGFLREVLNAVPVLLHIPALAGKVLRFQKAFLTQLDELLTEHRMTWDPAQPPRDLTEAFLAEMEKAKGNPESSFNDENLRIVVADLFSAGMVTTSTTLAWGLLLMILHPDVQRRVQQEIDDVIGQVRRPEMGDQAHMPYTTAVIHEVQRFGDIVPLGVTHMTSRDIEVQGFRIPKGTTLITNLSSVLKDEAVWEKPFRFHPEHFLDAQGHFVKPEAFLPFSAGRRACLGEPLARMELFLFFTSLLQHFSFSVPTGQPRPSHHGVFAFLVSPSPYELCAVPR

Cytochrome P450 3A4 = Cytochrome P450 3A4 (Homo sapiens, UniProt P08684); assay: Inhibition of CYP3A4 (unknown origin) at upto 100 uM; assay type: ADME
Cytochrome P450 3A4, sequence (P08684 whole entry): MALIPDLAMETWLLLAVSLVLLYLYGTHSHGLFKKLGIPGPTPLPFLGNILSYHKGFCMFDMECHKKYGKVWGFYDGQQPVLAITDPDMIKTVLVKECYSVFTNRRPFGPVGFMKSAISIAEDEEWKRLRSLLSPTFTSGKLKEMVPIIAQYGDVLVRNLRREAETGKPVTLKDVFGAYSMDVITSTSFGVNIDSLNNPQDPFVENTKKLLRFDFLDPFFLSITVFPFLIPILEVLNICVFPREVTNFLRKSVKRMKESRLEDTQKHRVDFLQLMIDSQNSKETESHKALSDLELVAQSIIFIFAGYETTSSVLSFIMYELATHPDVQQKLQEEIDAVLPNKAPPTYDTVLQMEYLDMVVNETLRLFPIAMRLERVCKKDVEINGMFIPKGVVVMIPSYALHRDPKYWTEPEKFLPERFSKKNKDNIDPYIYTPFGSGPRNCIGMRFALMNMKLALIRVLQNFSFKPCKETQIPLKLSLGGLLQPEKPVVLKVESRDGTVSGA

Pseudomonas aeruginosa [9] = assay: Antibacterial activity against Pseudomonas aeruginosa infected in BalbC mouse model of Septicaemia infection assessed as survival rate at 128 mg/kg administration starting at 0.5 to 2 hrs post infection and measured after 5 days relative to control; assay type: functional; conditions: 120 h, time 5 day
[10] = Stability in human liver microsomes at 1 uM measured up to 60 mins in presence of NADPH by LC-MS/MS analysis; assay type: ADME, Microsome; conditions: 1 h
[11] = Plasma protein binding in human at 1 uM incubated for 6 hrs by LC-MS/MS analysis; assay type: ADME, cell-free
[12] = Stability in dog plasma at 1 uM measured upto 120 mins by LC-MS/MS analysis; assay type: ADME, cell-free, Canis lupus familiaris; conditions: 2 h
Pseudomonas aeruginosa [13] = assay: Antibacterial activity against Pseudomonas aeruginosa infected in BalbC mouse model of Septicaemia infection assessed as survival rate at 8 mg/kg administered 30 mins post infection and measured after 3 days relative to control; assay type: functional; conditions: 72 h, time 3 day
THP-1 = assay: Cytotoxicity against human THP-1 cells at upto 300 ug/ml relative to control; assay type: toxicity, cell-based; conditions: up to 300 µg/mL
Pseudomonas aeruginosa [14] = assay: Antibacterial activity against Pseudomonas aeruginosa infected in BalbC mouse model of Septicaemia infection assessed as survival rate at 4 mg/kg administered 30 mins post infection and measured after 6 days relative to control; assay type: functional; conditions: 144 h, time 6 day
[15] = Clearance in male Sprague-Dawley rat at 2 mg/kg by LC-MS/MS analysis; assay type: ADME, organism-based; conditions: in vivo

For `C[C@H]1[C@H](NC(=O)/C(=N\OC(C)(C)C(=O)O)c2csc(N)n2)C(=O)N1S(=O)(=O)O` [AZTREONAM], the Activity (Huh-7) was 60%, the “inhibition (INH)” value (Cytochrome P450 1A2) was “Not Active” and the “inhibition (INH)” value (Cytochrome P450 2B6) was “Not Active”. For the same compound, the “inhibition (INH)” value (Cytochrome P450 2C9) was “Not Active”, the Stability [1] was “Stable” and the AUC [2] was 2410 ng·h/mL. The Stability [3] was “Stable”, the “inhibition (INH)” value (Cytochrome P450 2C8) was “Not Active” and the Stability [4] was “Stable”. The Stability [5] was “Stable”, the Stability [6] was “Stable” and the Stability [7] was “Stable”. The “inhibition (INH)” value (Cytochrome P450 2C19) was “Not Active”, the Stability [8] was “Stable” and the “inhibition (INH)” value (Cytochrome P450 2D6) was “Not Active”. For the same compound, the “inhibition (INH)” value (Cytochrome P450 3A4) was “Not Active”, the survival at 128 mg/kg (Pseudomonas aeruginosa [9]) was 90% and the Stability [10] was “Stable”. The Stability ([11]; 6 h, 1 µM) was “Stable” and the Stability [12] was “Stable”.

For `Cc1sc(N)nc1/C(=N/O[C@@H](COc1ccc(C(=N)N[C@@H]2CCNC2)cc1)C(=O)O)C(=O)N[C@@H]1C(=O)N(OS(=O)(=O)O)C1(C)C`, the Activity (Huh-7) was 60%, the “inhibition (INH)” value (Cytochrome P450 1A2) was “Not Active” and the “inhibition (INH)” value (Cytochrome P450 2B6) was “Not Active”. The “inhibition (INH)” value (Cytochrome P450 2C9) was “Not Active”, the Stability [1] was “Stable” and the AUC [2] was 2790 ng·h/mL. For the same compound, the Stability [3] was “Stable”, the survival at 8 mg/kg (Pseudomonas aeruginosa [13]) was 60% and the “inhibition (INH)” value (Cytochrome P450 2C8) was “Not Active”. The Stability [4] was “Stable”, the Stability [5] was “Stable” and the Stability [6] was “Stable”. The Stability [7] was “Stable”, the Activity (THP-1) was over 80% and the “inhibition (INH)” value (Cytochrome P450 2C19) was “Not Active”. For the same compound, the Stability [8] was “Stable”, the “inhibition (INH)” value (Cytochrome P450 2D6) was “Not Active” and the survival at 4 mg/kg (Pseudomonas aeruginosa [14]) was 30%. The “inhibition (INH)” value (Cytochrome P450 3A4) was “Not Active”, the clearance [15] was 12.5 mL/min/kg and the Stability [10] was “Stable”. For the same compound, the fraction unbound at 6 h, 1 µM ([11]; read-out: PPB (converted)) was 0.383 and the Stability [12] was “Stable”.
